From patent publication US5362879A, “4-5-diphenyloxazole derivatives as inhibitors of blood platelet aggregation” (Bristol-Myers Squibb Company, priority 1993, dated 1994)
Values after ≈ are worked out from the molar mass of the structure shown.

Legend:
[1] = test system: human platelets in platelet-rich-plasma; assay: ADP-induced aggregation of human platelets in platelet-rich plasma (Born aggregometer method as modified by Mustard et al.); format: cell-based
Procedure: Platelet-rich plasma was prepared from human blood drain into syringes containing 1/10 volume of 3.8% sodium citrate. The blood was then subjected to centrifugation for about 10 minutes at 140 g and then the platelet-rich plasma decanted. The test compound was dissolved in DMSO (5 μL) and added to PRP (0.9 mL) 3 minutes prior to the addition of ADP (5.86 μM). The aggregometer method of Born, as modified by Mustard et al., was employed to measure platelet aggregation. Vehicle control trials were performed and compared with the extent of aggregation induced in PRP containing various concentrations of the test compounds. Dose-response curves were thus obtained and IC50 values determined.

human PRP = details: cited from earlier work
platelet aggregation = details: prior art description; cited from earlier work

Row | Structure (SMILES) | potency relative to the compound of Formula (ii) (inhibition of ADP-induced platelet aggregation) [1] | IC50 (human PRP vs ADP) (human PRP) [µg/mL] | inhibition of platelet aggregation (in words) (platelet aggregation)
1 | CCOC(=O)N(Cc1nc(-c2ccccc2)c(-c2ccccc2)o1)c1cccc(OCC(=O)O)c1 [Compound 13d, [3-[[(4,5-diphenyl-2-oxazolyl)methyl](ethoxycarbonyl)amino]phenoxy]acetic acid] | four times as potent |  | 
2 | O=C(O)CCCCCCCOc1nc(-c2ccccc2)c(-c2ccccc2)n1-c1ccccc1 [Octimibate] |  | 1 (≈ 2.2 µM) | broad spectrum inhibitor of platelet aggregation
3 | O=C(O)CCCCCCCOc1nc(-c2ccccc2)c(-c2ccccc2)n1-c1ccccc1 [octimibate sodium] |  |  | possessing anti-aggregatory activity
